Results from patent publication US9750728B2, “Method and pharmaceutical composition for inhibiting PI3K/AKT/mTOR signaling pathway” (TARGETED THERAPEUTICS, LLC, priority 2012, dated 2017).
Entries after “also recorded” stand apart in the source; their conditions may differ.

Experiments:
PI3K = PI3K kinase assay in anti-p85 immunoprecipitates; type: cell-based; settings: Panc-1, 24 hours
Experimental: PI3K kinase assay kit (Calbiochem, Bilerica, Mass., USA) was used to measure the IRS-1-associated or p85-associated PI3K kinase activity in cells. The indicated cells were treated with different conditions for 24 hours. The cells were rinsed three times with pre-cooled PBS, lysed in 500 μl of lysis buffer (150 mmol/L Nacl, 1% Triton-x-100, 50 mmol/1 Tris (pH8.0, 1 mmol/L PMSF, 1 μg/L aprotinin, 1 μg/Lleupeptin, 1 μg/L peptain). Cell lysates (500 μg, in triplicate) of were used for anti-IRS-1 or anti-p85 immunoprecipitation. The immunoprecipitates were resuspended in 200 μl assay buffer and mixed with the fluorescence-labeled PI3K substrate BODIPY-TMR-phosphatidylinositol (100 μM) and ATP (37° C.) for 1 hour. The fluorescence intensity was measured with a fluorometer (excitation wavelength of 540 nm, emission wavelength […]). The difference between fluorescence intensity between control immunoprecipitates (no lysates) and lysate immunoprecipitates was used to indicate PI3K kinase activity. IR-1 anti-rabbit antibody and rabbit anti-PI3K p85 antibody were purchased from Millipore Corporation (Billerica, Mass., USA). Panc-1 anti-p85 immunoprecipitates were used for PI3K kinase assay (FIG. 12) and immunoblot analysis (FIG. 12). Rapamycin treatment in control cells increased PI3K kinase activity (P<0.01).

[1] = tested on: mTOR (S2448) phosphorylation; assay: Immunoblot analysis of mTOR phosphorylation; type: cell-based; settings: Panc-1; rapamycin, or Y29794 1 μM (FIG. 19D)
Experimental: Mouse anti-PRCP antibody was purchased from Abcam (Cambridge, Mass., USA). Goat anti-PREP antibody was purchased from R&D Systems (Minneapolis, Minn., USA). Mouse anti-R-actin antibody antibodies was from Santa Cruz Biotechnology (Santa Cruz, Calif., USA). Panc-1 pancreatic cancer cells and MCF7 breast cancer cells were cultured to 80% confluence, cells were rinsed three times with pre-cooled PBS, 500 μl of lysis buffer (150 mmol/L Nacl, 1% Triton-x-100, 50 mmol/l TrispH8.0, 1 mmol/L PMSF, 1 ug/L aprotinin, 1 ug/L leupeptin, 1 ug/L peptain) was added to the cells. Cells were scraped and transferred to a centrifuge tube with a pipette. The lysates were spun in a microcentrifuge at maximal speed for 10 minutes at 4° C. to get rid of the insoluble fraction. Protein concentration was determined by Bradford assay. For immunoprecipitation: 2-5 ug protein-specific antibodies were added to 250-500 ug of lysates in a tube and incubated on an ordital shaker 4° C. for 2-4 hours with moderate shaking, then 20 ul Protein G beads (Santa Cruz Biotechnology (Santa Cruz, Calif., USA.) were added and the mixture was incubated with moderate shaking for another hour. After washing the beads in lysis buffer five times, the immunoprecipitates were boiled in 2× Laemmli sample buffer (50 mmoL/L Tris-HCL (pH8.0), 100 mmoL/L DTT, 2% SDS, 0.1% bromophenol blue, 10% glycerol) for five minutes. The proteins were separated by conventional SDS-polyacrylamide gel electrophoresis (SDS-PAGE) electrophoresis and transferred to Amersham Hybond-P PVDF membrane (GE Company, Pittsburgh, Pa., USA). For immunoblot, the membrane was blocked in 2% BSA in TBST buffer (Tris 1.21 g+NaCl 5.84 g+800 ml H2O adjusted to pH 8.0 with HCl) for one hour and then incubated with primary antibodies in TBST at room temperature (22-25° C.) for 2 hours. After washing three times with TBST, the membrane was incubated with HRP-conjugated secondary antibodies for 0.5 hours at room temperature. […]

## CC(C)c1ccc(C(=O)c2cccs2)c(SCCCCCCCCN(C)C)n1 [Y29794, [2-[8-(dimethylamino)octylsulfanyl]-6-propan-2-ylpyridin-3-yl]-thiophen-2-ylmethanone]
PI3K; ZPP 200 μM, Y29794 0.5 μM or rapamycin alone, vs vehicle
  PI3K kinase activity (p85-associated): reduced; also recorded: significantly lower
PI3K; rapamycin with ZPP 200 μM or Y29794 0.5 μM
  rapamycin-induced increase in PI3K kinase activity (p85-associated): blocks; also recorded: inhibited
[1]
  mTOR (S2448) phosphorylation: without affecting
